{"source": "patent US10065942B2", "about": "“Crystalline (2S)-3-[(3S,4S)-3-[(1R)-1-hydroxyethyl]-4-(4-methoxy-3-{[1-(5-methylpyridin-2-yl)azetidin-3-yl]oxy}phenyl)-3-methylpyrrolidin-1-yl]-3-oxopropane-1,2-diol” (Eli Lilly and Company, priority 2014, dated 2018)", "tested_on": "chronic cyclophosphamide (CYP)-induced overactive bladder mouse model", "assay": "Overactive Bladder In Vivo Model (chronic cyclophosphamide-induced OAB)", "settings": "for Mean Voiding Frequency (no./4 hr) / Mean Volume/Void: oral daily, day 8, female C57/Bl6 mice", "experimental": "The in vivo effect of PDE4 inhibitors on OAB is studied with a chronic cyclophosphamide (CYP)-induced overactive bladder mouse model adapted from Boudes et al., Neurourol. Urodynam. 2011. In a typical study, female C57/Bl6 mice, approximately 20 grams in body weight (Harlan Laboratories, Inc., Indianapolis, Ind.) are used. Mice are randomized by body weight into groups one day before the start of the study. Mice are individually housed and maintained on a 12 hour light/dark cycle at 22° C. with ad lib access to food (TD 2014 with 0.72% Ca and 0.61% P, 990 IU/g D3, Teklad™, Madison, Wis.) and water. Animals receive cyclophosphamide (dissolved in physiological saline) i.p. administration at 100 mg/kg on days 1, 3, 5, and 7 to chronically induce OAB. The vehicle control group received daily vehicle (HEC 1%/Tween 80 0.25%/Antifoam 0.05%) administered orally. All other groups are administered orally tadalafil at 10 mg/kg in combination with 0.1, 1.0, or 10.0 mg/kg of test compound daily at a volume of 200 μl/mouse. On day 8, mice are housed in urine collection chambers with a filter paper placed underneath chamber. Prior to urine collection, gavages of 1 ml water are given to each mouse. Urine is collected from 6 pm to 10 pm (i.e. for 4 hrs). Gel cups (DietGel™ 76A) are supplied as water source during the 4 hour period. The filter paper is changed every hour. Voiding frequency and volume/void are calculated using Image J software (NIH). Data are statistically analyzed with JMP8® software (Cary, N. C.).\nAll treatment groups receive a fixed dose of 10 mg/kg of tadalafil.", "key": {"[1]": {"settings": "Example 2 0.1 mg/kg + tadalafil 10 mg/kg"}, "[2]": {"settings": "Example 2 1.0 mg/kg + tadalafil 10 mg/kg"}, "[3]": {"settings": "Example 2 10.0 mg/kg + tadalafil 10 mg/kg"}, "[4]": {"settings": "given with tadalafil 10 mg/kg, 0.1, 1.0, 10.0 mg/kg oral daily"}}}
{"smiles": "COc1ccc([C@@H]2CN(C(=O)[C@@H](O)CO)C[C@@]2(C)[C@@H](C)O)cc1OC1CN(c2ccc(C)cn2)C1", "note": "[Example 2, (2S)-3-[(3S,4S)-3-[(1R)-1-hydroxyethyl]-4-(4-methoxy-3-{[1-(5-methylpyridin-2-yl)azetidin-3-yl]oxy}phenyl)-3-methylpyrrolidin-1-yl]-3-oxopropane-1,2-diol]", "values": [{"measurement": "Mean Voiding Frequency (no./4 hr)", "setting": "[1]", "result": 10, "unit": "no./4 hr"}, {"measurement": "Mean Volume/Void", "setting": "[1]", "result": 47.3, "unit": "µL"}, {"measurement": "Mean Voiding Frequency (no./4 hr)", "setting": "[2]", "result": 8.61, "unit": "no./4 hr"}, {"measurement": "Mean Volume/Void", "setting": "[2]", "result": 77.2, "unit": "µL"}, {"measurement": "Mean Voiding Frequency (no./4 hr)", "setting": "[3]", "result": 8.38, "unit": "no./4 hr"}, {"measurement": "Mean Volume/Void", "setting": "[3]", "result": 81.9, "unit": "µL"}, {"measurement": "effect on urinary frequency (in words)", "setting": "[4]", "result": "significantly reduces urinary frequency in a dose-dependent fashion"}, {"measurement": "effect on volume/void (in words)", "setting": "[4]", "result": "increases of volume/void are also observed in a dose-dependent fashion"}]}
